Reference: patent US20260078103A1, “ISOQUINOLONES AS PI3K INHIBITORS” (OnKure, Inc., priority 2022, published 2026)
Read-outs that look alike come from different tables or passages of the source.

What was measured:
Format in all cases: cell-based
[1] = test system: phosphorylation of AKT (pAKT) in SKBR3 cells express WT PI3Ka; experiment: In vitro cell pAKT (Ser473) HTRF, SKBR3 cells; conditions: cellular pAKT
Method: (§1) In Vitro Cell pAKT: Determination of IC50 Values for Inhibition of Phosphorylation of AKT (pAKT) in T47D Cells Expressing Mutant PI3Ka (H1047R) Mutation and SKBR3 Cells Express WT PI3Ka.
(§2) T47D or SKBR3 cells were trypsinized, resuspended in culture media and seeded onto assay ready plates. T47D culture media consisted of RPMI, 10% FBS and Insulin (0.2 units/mL). SKBR3 culture media consisted of McCoy's 5a and 10% FBS. Cells were seeded at a density of 5000 cells/well and dispensed in 12.5 μL onto 384 well assay ready plates (Perkin Elmer, 6008238)). Assay ready plates had previously been stamped with 10-point dilutions of compounds of interest, as well as controls. The Echo655 is used to stamp plates at 12.5 nL of compound or DMSO. Cells were grown for 6 hours at 37° Celsius and 5% CO2. After 6 hours, 4 μL of Lysis buffer reagent was added to the plate, which was then centrifuged for 1 minute at 1000 rpm. Then the plate was incubated at room temperature for 30 minutes. After 30 minutes, 4 μL of antibody mix containing Eu Cryptate, d2 Cryptate, and detection buffer, was added to the plate. The plate was centrifuged for 1 minute at 1000 rpm and then incubated overnight at room temperature. The plate was read on an Envision plate reader using the HTRF protocol. The percentage of inhibition of AKT phosphorylation was calculated using the following formula: % Inhibition=100×(pAKTHC−pAKTSample)/(pAKTHC−pAKTLC)), where pAKTHC is obtained from cells treated with 0.1% DMSO only; PAKTLC is obtained from cells treated with 10 uM Alpelisib. The IC50 (concentration achieving 50% inhibition of pAKT) is calculated by fitting the Curve using XIfit (v5.3.1.3), equation 201: Y=Bottom+(Top−Bottom)/(1+10^((LogIC50−X)*HillSlope)).

[2] = test system: T47D cells expressing mutant PI3Ka (H1047R); experiment: In vitro cell proliferation, T47D cells (CellTiter-Glo); conditions: inhibition of proliferation, read-out: Avg T-47D EC50
Method: (§3) In Vitro Cell Proliferation: Determination of EC50 Values for Inhibition of Proliferation in T47D Cells Expressing Mutant PI3Ka (H1047R) Mutation and SKBR3 Cells Express WT PI3Ka.
(§4) T47D or SKBR3 cells were trypsinized, resuspended in culture media and seeded onto assay ready plates. T47D culture media consisted of RPMI, 10% FBS and Insulin (0.2 units/mL). SKBR3 culture media consisted of McCoys 5a and 10% FBS. Cells were seeded at a density of 1,500 cells/well and dispensed in 50 μl onto 384 well assay ready plates (Corning, 89089-790). Assay ready plates had previously been stamped with 10-point dilutions of compounds of interest, as well as controls. The Echo655 is used to stamp plates at 40 nL of compound or DMSO. Cells were grown for 72 hours at 37° Celsius and 5% CO2. After 72 hours, cells were equilibrated at room temperature for 15 minutes. 30 μL of CellTiter-Glo reagent is added to the plate, which is then shaken for 30 minutes at temperature at 300-500 rpm. Cells are then read on an Envision plate reader. The percentage of inhibition of proliferation was calculated using the following formula: % Inhibition=100×(LumD−Lumsample)/(LumD−Lumlnh), where D is obtained from cells treated with 0.1% DMSO only; lnh is obtained from cells treated with 10 uM Alpelisib. The effective concentration achieving 50% inhibition of proliferation (EC50) is calculated by fitting the Curve using Xlfit (v5.3.1.3), equation 201: Y=Bottom+(Top−Bottom)/(1+10^((LogEC50−X)*HillSlope)).

[3] = test system: phosphorylation of AKT (pAKT) in T47D cells expressing mutant PI3Ka (H1047R); experiment: In vitro cell pAKT (Ser473) HTRF, T47D cells; conditions: cellular pAKT, T47D cells, mutant PI3Ka (H1047R), 6 hours, read-out: Avg T-47D IC50
Method: as §1, §2

[4] = test system: SKBR3 cells express WT PI3Ka; experiment: In vitro cell proliferation, SKBR3 cells (CellTiter-Glo); conditions: inhibition of proliferation
Method: as §3, §4

| IC50 ([1]; Homo sapiens, SK-BR-3, 6 h) [µM] | EC50 ([2]; 72 hours) [µM] | IC50 [3] [µM] | EC50 ([4]; Homo sapiens, SK-BR-3, 72 h) [µM] | IC50 ([1]; 6 hours) [µM] | EC50 ([4]; 72 hours) [µM] | EC50 ([2]; Homo sapiens, T47D, 72 h) [µM] | IC50 ([3]; Homo sapiens, T47D, 6 h) [µM] | Compound |
| --- | --- | --- | --- | --- | --- | --- | --- | --- |
| > 15 | 0.5 to 2 | 0.001 to 0.5 | > 15 | – | – | – | – | Cc1cc(C(C)Nc2ccccc2C(=O)O)c2cc(N3Cc4cccc(C(F)(F)F)c4C3)n(C)c(=O)c2c1 (single isomer, unassigned) [Example 92] |
| – | 2 to 15 | > 15 | – | > 15 | > 15 | – | – | Cc1cc(C(C)Nc2ccccc2C(=O)O)c2cc(N3Cc4cccc(C(F)(F)F)c4C3)n(C)c(=O)c2c1 (single isomer, unassigned) [Example 93] |
| > 15 | 0.001 to 0.5 | 0.001 to 0.5 | – | – | 2 to 15 | – | – | Cc1cc(C(C)Nc2ccccc2C(=O)O)c2cc(N3CCC4(CCN(CC(F)(F)F)C4)CC3)n(C)c(=O)c2c1 (single isomer, unassigned) [Example 96] |
| – | 2 to 15 | 2 to 15 | – | > 15 | > 15 | – | – | Cc1cc(C(C)Nc2ccccc2C(=O)O)c2cc(N3CCC4(CCN(CC(F)(F)F)C4)CC3)n(C)c(=O)c2c1 (single isomer, unassigned) [Example 97] |
| > 15 | 0.001 to 0.5 | 0.001 to 0.5 | > 15 | – | – | – | – | Cc1cc(C(C)Nc2ccccc2C(=O)O)c2cc(N3C[C@@H]4CCCC[C@H]4C3)n(C)c(=O)c2c1 (single isomer, unassigned) [Example 100] |
| > 15 | – | – | > 15 | – | – | > 15 | > 15 | Cc1cc(C(C)Nc2ccccc2C(=O)O)c2cc(N3C[C@H]4CCCC[C@@H]4C3)n(C)c(=O)c2c1 (single isomer, unassigned) [Example 101] |
| > 15 | 2 to 15 | > 15 | > 15 | – | – | – | – | Cc1cc(C(C)Nc2ccccc2C(=O)O)c2cc(N3Cc4cc(F)cc(F)c4C3)n(C)c(=O)c2c1 (single isomer, unassigned) [Example 102] |
| – | 0.001 to 0.5 | 0.001 to 0.5 | – | > 15 | > 15 | – | – | Cc1cc(C(C)Nc2ccccc2C(=O)O)c2cc(N3Cc4cc(F)cc(F)c4C3)n(C)c(=O)c2c1 (single isomer, unassigned) [Example 103] |
| > 15 | 2 to 15 | > 15 | – | – | 2 to 15 | – | – | Cc1cc(C(C)Nc2ccccc2C(=O)O)c2cc(N3CCC(c4ccccc4)C3)n(C)c(=O)c2c1 (single isomer, unassigned) [Example 104] |
| – | 0.5 to 2 | 0.001 to 0.5 | – | > 15 | > 15 | – | – | Cc1cc(C(C)Nc2ccccc2C(=O)O)c2cc(N3CCC(c4ccccc4)C3)n(C)c(=O)c2c1 (single isomer, unassigned) [Example 105] |
| > 15 | 2 to 15 | > 15 | > 15 | – | – | – | – | Cc1cc(C(C)Nc2ccccc2C(=O)O)c2cc(N3Cc4ccncc4C3)n(C)c(=O)c2c1 (single isomer, unassigned) [Example 106] |
| – | 0.001 to 0.5 | 0.001 to 0.5 | – | > 15 | > 15 | – | – | Cc1cc(C(C)Nc2ccccc2C(=O)O)c2cc(N3Cc4ccncc4C3)n(C)c(=O)c2c1 (single isomer, unassigned) [Example 107] |
| – | 2 to 15 | > 15 | – | > 15 | > 15 | – | – | Cc1cc(C(C)Nc2ccccc2C(=O)O)c2cc(N3C[C@@H]4CN(CC(F)(F)F)C[C@H]4C3)n(C)c(=O)c2c1 (single isomer, unassigned) [Example 108] |
